From US10750743B2, “Pyridazinone herbicides” (E.I. DU PONT DE NEMOURS AND COMPANY, priority 2015, dated 2020)

Legend:
Type in all cases: in vivo
[1] = tested on: sedge, umbrella (small-flower umbrella sedge, Cyperus difformis); experiment: Test B flooded paddy test, visual rating; conditions: Flood, 250 g ai/ha, applied to paddy water, rated after 13 to 15 d
In short: (§1)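 Plants at the 2-leaf stage were flooded to 3 cm above soil, and test compounds were applied directly into the paddy water, which was held at that depth throughout. After 13 to 15 d in a greenhouse, injury was rated visually against untreated controls on a 0–100 scale (0 no effect, 100 complete control).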

[2] = tested on: ducksalad (Heteranthera limosa); experiment: Test B flooded paddy test, visual rating; conditions: Flood, 250 g ai/ha, applied to paddy water, rated after 13 to 15 d
In short: as §1

[3] = tested on: barnyardgrass (Echinochloa crus-galli); experiment: Test B flooded paddy test, visual rating; conditions: Flood, 250 g ai/ha, applied to paddy water, rated after 13 to 15 d
In short: as §1

rice (Oryza sativa) = experiment: Test B flooded paddy test, visual rating; conditions: Flood, 250 g ai/ha, applied to paddy water, rated after 13 to 15 d
In short: as §1

[4] = tested on: ryegrass, It. (Italian ryegrass, Lolium multiflorum); experiment: Test A preemergence, directed soil spray, visual injury rating; conditions: 0 is no effect, 100 is complete control
In short: (§2)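 Seeds sown in a loam soil–sand blend received a directed preemergence soil spray of test chemical in a non-phytotoxic solvent mixture with surfactant. Postemergence plants were sprayed at 2 to 10 cm, one- to two-leaf stage. After approximately 10 d in greenhouse, injury was visually rated 0 (no effect) to 100 (complete control) against untreated controls.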

[5] = tested on: foxtail, giant (giant foxtail, Setaria faberii); experiment: as above; conditions: 0 is no effect, 100 is complete control
In short: as §2

[6] = tested on: pigweed (Amaranthus retroflexus); experiment: as above; conditions: 0 is no effect, 100 is complete control
In short: as §2

[7] = tested on: barnyardgrass (Echinochloa crus-galli); experiment: as above; conditions: 0 is no effect, 100 is complete control
In short: as §2

kochia (Kochia scoparia) [8] = experiment: as above; conditions: 0 is no effect, 100 is complete control
In short: as §2

[9] = tested on: ragweed (common ragweed, Ambrosia elatior); experiment: as above; conditions: 0 is no effect, 100 is complete control
In short: as §2

[10] = tested on: galium (catchweed bedstraw, Galium aparine); experiment: Test A postemergence application, visual injury rating; conditions: for Plant response rating (0 to 100 scale), Galium: 31 g ai/ha, 0 is no effect, 100 is complete control; for Galium plant response rating: 125 g ai/ha, 0 to 100 scale, 0 no effect, 100 complete control
In short: as §2

[11] = tested on: ryegrass, It. (Italian ryegrass, Lolium multiflorum); experiment: as above; conditions: for Plant response rating (0 to 100 scale), Ryegrass, It.: 31 g ai/ha, 0 is no effect, 100 is complete control; for Ryegrass, It. plant response rating: 125 g ai/ha, 0 to 100 scale, 0 no effect, 100 complete control
In short: as §2

[12] = tested on: foxtail, giant (giant foxtail, Setaria faberii); experiment: as above; conditions: for Plant response rating (0 to 100 scale), Foxtail, Giant: 31 g ai/ha, 0 is no effect, 100 is complete control; for Foxtail, Giant plant response rating: 125 g ai/ha, 0 to 100 scale, 0 no effect, 100 complete control
In short: as §2

[13] = tested on: wheat (Triticum aestivum); experiment: as above; conditions: for Plant response rating (0 to 100 scale), Wheat: 31 g ai/ha, 0 is no effect, 100 is complete control; for Wheat plant response rating: 125 g ai/ha, 0 to 100 scale, 0 no effect, 100 complete control
In short: as §2

corn (Zea mays) = experiment: as above; conditions: for Plant response rating (0 to 100 scale), Corn: 31 g ai/ha, 0 is no effect, 100 is complete control; for Corn plant response rating: 125 g ai/ha, 0 to 100 scale, 0 no effect, 100 complete control
In short: as §2

[14] = tested on: pigweed (Amaranthus retroflexus); experiment: as above; conditions: for Plant response rating (0 to 100 scale), Pigweed: 31 g ai/ha, 0 is no effect, 100 is complete control; for Pigweed plant response rating: 125 g ai/ha, 0 to 100 scale, 0 no effect, 100 complete control
In short: as §2

[15] = tested on: barnyardgrass (Echinochloa crus-galli); experiment: as above; conditions: 0 to 100 scale, 0 no effect, 100 complete control
In short: as §2

kochia (Kochia scoparia) [16] = experiment: as above; conditions: for Plant response rating (0 to 100 scale), Kochia: 31 g ai/ha, 0 is no effect, 100 is complete control; for Kochia plant response rating: 125 g ai/ha, 0 to 100 scale, 0 no effect, 100 complete control
In short: as §2

[17] = tested on: ragweed (common ragweed, Ambrosia elatior); experiment: as above; conditions: for Plant response rating (0 to 100 scale), Ragweed: 31 g ai/ha, 0 is no effect, 100 is complete control; for Ragweed plant response rating: 125 g ai/ha, 0 to 100 scale, 0 no effect, 100 complete control
In short: as §2

[18] = tested on: blackgrass (Alopecurus myosuroides); experiment: as above; conditions: 0 to 100 scale, 0 no effect, 100 complete control
In short: as §2

CC(=O)Oc1c(Cl)nn(C)c(=O)c1-c1nccc2ccccc12 [Compound 66]
Sedge, Umbrella plant response rating (0 to 100 scale, 0 is no effect, 100 is complete control) [1]: 0 | Ducksalad plant response rating (0 to 100 scale, 0 is no effect, 100 is complete control) [2]: 0 | Barnyardgrass plant response rating (0 to 100 scale, 0 is no effect, 100 is complete control) [3]: 0 | Rice plant response rating (0 to 100 scale, 0 is no effect, 100 is complete control) (rice (Oryza sativa)): 0 | Plant response rating (0 to 100 scale), Ryegrass, It. ([4]; 31 g ai/ha): 0 | Plant response rating (0 to 100 scale), Ryegrass, It. ([4]; 125 g ai/ha): 50 | Plant response rating (0 to 100 scale), Foxtail, Giant ([5]; 31 g ai/ha): 0 | Plant response rating (0 to 100 scale), Foxtail, Giant ([5]; 125 g ai/ha): 0 | Plant response rating (0 to 100 scale), Pigweed ([6]; 31 g ai/ha): 10 | Plant response rating (0 to 100 scale), Pigweed ([6]; 125 g ai/ha): 20 | Plant response rating (0 to 100 scale), Barnyardgrass ([7]; 31 g ai/ha): 0 | Plant response rating (0 to 100 scale), Barnyardgrass ([7]; 125 g ai/ha): 0 | Plant response rating (0 to 100 scale), Kochia (kochia (Kochia scoparia) [8]; 31 g ai/ha): 0 | Plant response rating (0 to 100 scale), Kochia (kochia (Kochia scoparia) [8]; 125 g ai/ha): 0 | Plant response rating (0 to 100 scale), Ragweed ([9]; 31 g ai/ha): 0 | Plant response rating (0 to 100 scale), Ragweed ([9]; 125 g ai/ha): 0 | Plant response rating (0 to 100 scale), Galium [10]: 0 | Galium plant response rating [10]: 50 | Plant response rating (0 to 100 scale), Ryegrass, It. [11]: 20 | Ryegrass, It. plant response rating [11]: 40 | Plant response rating (0 to 100 scale), Foxtail, Giant [12]: 0 | Foxtail, Giant plant response rating [12]: 10 | Plant response rating (0 to 100 scale), Wheat [13]: 0 | Wheat plant response rating [13]: 0 | Plant response rating (0 to 100 scale), Corn (corn (Zea mays)): 0 | Corn plant response rating (corn (Zea mays)): 0 | Plant response rating (0 to 100 scale), Pigweed [14]: 40 | Pigweed plant response rating [14]: 50 | Barnyardgrass plant response rating ([15]; 31 g ai/ha): 0 | Barnyardgrass plant response rating ([15]; 125 g ai/ha): 10 | Plant response rating (0 to 100 scale), Kochia (kochia (Kochia scoparia) [16]): 0 | Kochia plant response rating (kochia (Kochia scoparia) [16]): 40 | Plant response rating (0 to 100 scale), Ragweed [17]: 10 | Ragweed plant response rating [17]: 30 | Blackgrass plant response rating ([18]; 31 g ai/ha): 0 | Blackgrass plant response rating ([18]; 125 g ai/ha): 0

Cn1nc(Cl)c(O)c(-c2ccc(F)c3ccoc23)c1=O [Compound 70]
Sedge, Umbrella plant response rating (0 to 100 scale, 0 is no effect, 100 is complete control) [1]: 0 | Ducksalad plant response rating (0 to 100 scale, 0 is no effect, 100 is complete control) [2]: 0 | Barnyardgrass plant response rating (0 to 100 scale, 0 is no effect, 100 is complete control) [3]: 0 | Rice plant response rating (0 to 100 scale, 0 is no effect, 100 is complete control) (rice (Oryza sativa)): 0 | Plant response rating (0 to 100 scale), Ryegrass, It. ([4]; 31 g ai/ha): 70 | Plant response rating (0 to 100 scale), Ryegrass, It. ([4]; 125 g ai/ha): 100 | Plant response rating (0 to 100 scale), Foxtail, Giant ([5]; 31 g ai/ha): 10 | Plant response rating (0 to 100 scale), Foxtail, Giant ([5]; 125 g ai/ha): 50 | Plant response rating (0 to 100 scale), Pigweed ([6]; 31 g ai/ha): 10 | Plant response rating (0 to 100 scale), Pigweed ([6]; 125 g ai/ha): 30 | Plant response rating (0 to 100 scale), Barnyardgrass ([7]; 31 g ai/ha): 40 | Plant response rating (0 to 100 scale), Barnyardgrass ([7]; 125 g ai/ha): 90 | Plant response rating (0 to 100 scale), Kochia (kochia (Kochia scoparia) [8]; 31 g ai/ha): 0 | Plant response rating (0 to 100 scale), Kochia (kochia (Kochia scoparia) [8]; 125 g ai/ha): 40 | Plant response rating (0 to 100 scale), Ragweed ([9]; 31 g ai/ha): 0 | Plant response rating (0 to 100 scale), Ragweed ([9]; 125 g ai/ha): 0 | Plant response rating (0 to 100 scale), Galium [10]: 50 | Galium plant response rating [10]: 90 | Plant response rating (0 to 100 scale), Ryegrass, It. [11]: 70 | Ryegrass, It. plant response rating [11]: 100 | Plant response rating (0 to 100 scale), Foxtail, Giant [12]: 10 | Foxtail, Giant plant response rating [12]: 40 | Plant response rating (0 to 100 scale), Wheat [13]: 0 | Wheat plant response rating [13]: 0 | Plant response rating (0 to 100 scale), Corn (corn (Zea mays)): 0 | Corn plant response rating (corn (Zea mays)): 0 | Plant response rating (0 to 100 scale), Pigweed [14]: 10 | Pigweed plant response rating [14]: 70 | Barnyardgrass plant response rating ([15]; 31 g ai/ha): 10 | Barnyardgrass plant response rating ([15]; 125 g ai/ha): 90 | Plant response rating (0 to 100 scale), Kochia (kochia (Kochia scoparia) [16]): 40 | Kochia plant response rating (kochia (Kochia scoparia) [16]): 90 | Plant response rating (0 to 100 scale), Ragweed [17]: 10 | Ragweed plant response rating [17]: 90 | Blackgrass plant response rating ([18]; 31 g ai/ha): 0 | Blackgrass plant response rating ([18]; 125 g ai/ha): 30
